Biological target: T1, glucocorticoid receptor (Homo sapiens, UniProt P04150)
T1 sequence (P04150 524-777 limits assumed): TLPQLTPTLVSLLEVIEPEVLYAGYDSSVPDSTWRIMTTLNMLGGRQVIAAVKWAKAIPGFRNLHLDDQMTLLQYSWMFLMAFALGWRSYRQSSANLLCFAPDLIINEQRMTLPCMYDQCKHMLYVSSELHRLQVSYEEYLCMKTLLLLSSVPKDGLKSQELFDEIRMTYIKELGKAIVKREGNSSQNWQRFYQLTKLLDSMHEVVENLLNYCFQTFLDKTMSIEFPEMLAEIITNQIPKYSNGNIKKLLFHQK
Assay: GRE reporter gene test (Experiment Example 2), HEK293T cells transfected with pGL4.35 and p-Bind GR Vector
Assay type: cell-based
Details: for EC50: GRE reporter gene, HEK293T cells, 18-20 h incubation; for Emax: HEK-293T; for maximum agonistic activity (Emax): compared with dexamethasone, transfected HEK293T cells
Procedure: The compound of the present invention to be tested was formulated into a 1 mM solution with DMSO, and then subjected to 4-fold dilution at 10 concentration points using DMSO to obtain a 1000× mother liquor, with a final test concentration of 0.0000038-1 μM.
HEK293T cells (ATCC) were plated in a 100 mm culture dish at a density of 6*10^6 cells/culture dish, and cultured for 16 h under the conditions of 37° C. and 5% CO2. Plasmids (pGL4.35 [luc2P/9XGAL4 UAS/Hygro], p-Bind GR Vector, Promega) and Lipofectamine® 3000 (Invitrogen) were mixed, added into the culture dish, and then incubated for 5-6 h under the conditions of 37° C. and 5% CO2.
In a 384-well plate (PerkinElmer), 25 nL of the compound mother liquor was added, and then HEK293T cells transfected with plasmids were added at a density of 18000 cells/well (25 μL). The cells were incubated for 18-20 h under the conditions of 37° C. and 5% CO2.
After the incubation was ended, 25 μL of britelite plus luciferase assay reagent (PerkinElmer) was added, and then reading was performed using an Envision 2105 multimode reader (PerkinElmer).
The activity was calculated using the following formula, % activity=100*(signal of compound well−average signal of negative control well)/(average signal of positive control well−average signal of negative control well). […] Fitting calculation of EC50 was performed on % activity and the logarithmic concentration of the compound using Graphpad 8.0, Y=Bottom+(Top−Bottom)/(1+10^((Log EC50−X)*HillSlope)), wherein Y is % activity, and X is the logarithmic concentration of the compound.

SMILES | EC50 [nM] | Emax [%] | maximum agonistic activity (Emax)
C[C@@H]1C[C@H]2[C@@H]3C[C@H](F)C4=CC(=O)C=C[C@]4(C)[C@@]3(F)[C@@H](O)C[C@]2(C)[C@@]1(OC(=O)c1ccco1)C(=O)SCCO [F-21, (6S,8S,9R,10S,11S,13S,14S,16R,17R)-6,9-difluoro-11-hydroxy-17-((2-hydroxyethyl)thio)carbonyl-10,13,16-trimethyl-3-oxo-6,7,8,9,11,12,13,14,15,16,17-dodecahydro-3H-cyclopenta[a]phenanthren-17-yl furan-2-carboxylate] | 1.3 | 139 | superior to dexamethasone
C[C@]12C=CC(=O)C=C1[C@@H](F)C[C@H]1[C@@H]3CC[C@](OC(=O)/C=C/c4ccc(F)c(N)c4)(C(=O)SCF)[C@@]3(C)C[C@H](O)[C@@]12F [E-4] | 1 | 84.8 | –
C[C@@H]1C[C@H]2[C@@H]3C[C@H](F)C4=CC(=O)C=C[C@]4(C)[C@@]3(F)[C@@H](O)C[C@]2(C)[C@@]1(OC(=O)C[C@@H](C)O)C(=O)SCF [D-19, (6S,8S,9R,10S,11S,13S,14S,16R,17R)-6,9-difluoro-17-(((fluoromethyl)thio)carbonyl)-11-hydroxy-10,13,16-trimethyl-3-oxo-6,7,8,9,10,11,12,13,14,15,16,17-dodecahydro-3H-cyclopenta[a]phenanthren-17-yl (R)-3-hydroxybutyrate] | 1.2 | 120 | superior to dexamethasone
CC(O)C(=O)O[C@]1(C(=O)SCF)[C@H](C)C[C@H]2[C@@H]3C[C@H](F)C4=CC(=O)C=C[C@]4(C)[C@@]3(F)[C@@H](O)C[C@@]21C (stereo partly drawn) [D-9] | 3.6 | 146 | superior to dexamethasone
C[C@]12C=CC(=O)C=C1CC[C@H]1[C@@H]3CC[C@](OC(=O)c4ccc(F)c(N)c4)(C(=O)SCF)[C@@]3(C)C[C@H](O)[C@@]12F [A-2] | 1.7 | 93.7 | –
C[C@]12C=CC(=O)C=C1[C@@H](F)C[C@H]1[C@@H]3CC[C@](OC(=O)c4cc(CO)co4)(C(=O)SCF)[C@@]3(C)C[C@H](O)[C@@]12F [F-10] | 0.6 | 150 | superior to dexamethasone
C[C@@H]1C[C@H]2[C@@H]3C[C@H](F)C4=CC(=O)C=C[C@]4(C)[C@@]3(F)[C@@H](O)C[C@]2(C)[C@@]1(OC(=O)c1ccc(CO)o1)C(=O)SCF [F-13, (6S,8S,9R,10S,11S,13S,14S,16R,17R)-6,9-difluoro-17-(((fluoromethyl)thio)carbonyl)-11-hydroxy-10,13,16-trimethyl-3-oxo-6,7,8,9,10,11,12,13,14,15,16,17-dodecahydro-3H-cyclopenta[a]phenanthren-17-yl 5-(hydroxymethyl)furan-2-carboxylate] | 1.3 | 104 | –
C[C@@H]1C[C@H]2[C@@H]3C[C@H](F)C4=CC(=O)C=C[C@]4(C)[C@@]3(F)[C@@H](O)C[C@]2(C)[C@@]1(OC(=O)c1ccc(CO)cc1)C(=O)SCF [B-31, (6S,8S,9R,10S,11S,13S,14S,16R,17R)-6,9-difluoro-17-(((fluoromethyl)thio)carbonyl)-11-hydroxy-10,13,16-trimethyl-3-oxo-6,7,8,9,10,11,12,13,14,15,16,17-dodecahydro-3H-cyclopenta[a]phenanthren-17-yl 4-(hydroxymethyl)benzoate] | 0.32 | 92.5 | –
CC(O)CC(=O)O[C@]1(C(=O)SCF)[C@H](C)C[C@H]2[C@@H]3C[C@H](F)C4=CC(=O)C=C[C@]4(C)[C@@]3(F)[C@@H](O)C[C@@]21C (stereo partly drawn) [D-11] | 0.8 | 115 | superior to dexamethasone
